target: T1, mGluR5 receptor (Sus scrofa, UniProt I3LUI7); experiment: [3H]-MPEP mGluR5 receptor binding assay (pig brain homogenate); settings: 5 nM [3H]-MPEP, read-out: IC50 mGluR5 Receptor (pig) [^3H]-MPEP Bond
T1 construct: 450 μg of protein from brain homogenate with 5 nM ^3[H]-MPEP; from tissue; host or cells: pig brain halves without medulla, cerebellum and pons
Summary of the method: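 Compounds at 10 μM competed with 5 nM [3H]-MPEP for binding to pig brain membranes (450 μg protein) for 60 min at room temperature in pH 8.0 Hepes buffer. Bound radioactivity was collected on glass-fibre filters and read by β-counting, with 10 μM unlabelled MPEP giving non-specific binding.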

T1 sequence (I3LUI7 19-1212): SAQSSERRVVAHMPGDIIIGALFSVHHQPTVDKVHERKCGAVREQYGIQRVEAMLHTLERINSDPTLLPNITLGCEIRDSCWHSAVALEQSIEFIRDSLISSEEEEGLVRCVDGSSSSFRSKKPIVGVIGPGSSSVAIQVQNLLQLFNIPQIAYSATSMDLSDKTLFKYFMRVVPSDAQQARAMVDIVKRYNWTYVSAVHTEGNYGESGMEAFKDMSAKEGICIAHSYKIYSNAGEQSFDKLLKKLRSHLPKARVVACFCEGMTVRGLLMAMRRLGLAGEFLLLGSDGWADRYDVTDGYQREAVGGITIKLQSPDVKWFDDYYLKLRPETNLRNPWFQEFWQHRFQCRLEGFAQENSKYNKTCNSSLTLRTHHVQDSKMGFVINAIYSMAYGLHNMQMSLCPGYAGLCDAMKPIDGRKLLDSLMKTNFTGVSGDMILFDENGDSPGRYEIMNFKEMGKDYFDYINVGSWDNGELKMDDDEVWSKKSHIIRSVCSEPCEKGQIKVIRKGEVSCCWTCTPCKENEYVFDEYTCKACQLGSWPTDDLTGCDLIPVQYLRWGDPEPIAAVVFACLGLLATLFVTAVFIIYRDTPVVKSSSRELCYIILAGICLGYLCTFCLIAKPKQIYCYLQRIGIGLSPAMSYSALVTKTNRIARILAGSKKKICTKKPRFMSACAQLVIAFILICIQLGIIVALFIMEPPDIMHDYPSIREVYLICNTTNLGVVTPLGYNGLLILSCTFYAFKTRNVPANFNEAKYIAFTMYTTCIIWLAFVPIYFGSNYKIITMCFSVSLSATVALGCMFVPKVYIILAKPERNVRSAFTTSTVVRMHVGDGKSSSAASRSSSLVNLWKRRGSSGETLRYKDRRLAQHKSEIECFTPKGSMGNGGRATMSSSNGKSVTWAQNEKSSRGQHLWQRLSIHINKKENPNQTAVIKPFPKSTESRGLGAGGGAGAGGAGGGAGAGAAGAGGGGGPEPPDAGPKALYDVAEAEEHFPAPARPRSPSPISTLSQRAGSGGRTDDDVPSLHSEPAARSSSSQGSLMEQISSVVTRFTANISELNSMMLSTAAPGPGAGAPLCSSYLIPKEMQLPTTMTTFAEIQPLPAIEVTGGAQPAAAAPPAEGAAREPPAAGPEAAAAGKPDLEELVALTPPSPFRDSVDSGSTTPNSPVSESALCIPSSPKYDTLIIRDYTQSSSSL

Compound	IC50 [nM]
O=C(c1ccccn1)N(Cc1cccc(-c2cc(F)c3ncnc(NC4CC4)c3c2)c1)C1CC1 [Example 708, N-cyclopropyl-N-(3-(4-(cyclopropylamino)-8-fluoroquinazolin-6-yl)benzyl)picolinamide]	130
CC(=O)N(Cc1cccc(-c2cc3c(NC4CC4)ncnc3cc2C)c1)C1CC1 [Example 710, N-cyclopropyl-N-(3-(4-(cyclopropylamino)-7-methylquinazolin-6-yl)benzyl)acetamide]	110
CC(=O)N(Cc1cccc(-c2cc(F)c3ncnc(NC4CC4)c3c2)c1)C1CC1 [Example 716, N-cyclopropyl-N-(3-(4-(cyclopropylamino)-8-fluoroquinazolin-6-yl)benzyl)acetamide]	120

same assay, conditions: 10 μM compound, 5 nM [3H]-MPEP

Compound	% Inhibition of mGluR5 Receptor (pig) [^3H]-MPEP Bond at 10 μM [%]
COc1ccc(S(=O)(=O)N(Cc2cccc(-c3cc(F)c4ncnc(NC5CC5)c4c3)c2)C2CC2)cc1 [Example 694, N-cyclopropyl-N-(3-(4-(cyclopropylamino)-8-fluoroquinazolin-6-yl)benzyl)-4-methoxybenzole sulfonamide]	82
Cc1cc2ncnc(NC3CC3)c2cc1-c1cccc(CN(C2CC2)S(=O)(=O)c2ccccc2)c1 [Example 721, N-cyclopropyl-N-(3-(4-(cyclopropylamino)-7-methylquinazolin-6-yl)benzyl)benzole sulfonamide]	87

same assay, conditions: 10 μM compound, 5 nM [3H]-MPEP, read-out: % Inhibition of mGluR5 Receptor (pig) [^3H]-MPEP Bond at 10 μM

Compound	inhibition at 10 µM [%]
CNc1ncnc2ccc(-c3cccc(CN(C(=O)c4cccc(F)c4)c4ccccc4F)c3)cc12 [Example 687, 3-fluoro-N-(2-fluorophenyl)-N-(3-(4-(methylamino)quinazolin-6-yl)benzyl)benzamide]	60
COc1ccc(CNc2ncnc3ccc(-c4cccc(CN(C(=O)CN(C)C)C5CC5)c4)cc23)c(OC)c1 [Example 689, N-cyclopropyl-N-(3-(4-(2,4-dimethoxybenzylamino)quinazolin-6-yl)benzyl)-2-(dimethylamino)acetamide]	41
Cc1cc2ncnc(NC3CC3)c2cc1-c1cccc(CN(C(=O)c2ccco2)C2CC2)c1 [Example 691, N-cyclopropyl-N-(3-(4-(cyclopropylamino)-7-methylquinazolin-6-yl)benzyl)furan-2-carboxamide]	83
Cc1cc2ncnc(NC3CC3)c2cc1-c1cccc(CN(C(=O)c2cc(Cl)cc(Cl)c2)C2CC2)c1 [Example 692, 3,5-dichloro-N-cyclopropyl-N-(3-(4-(cyclopropylamino)-7-methylquinazolin-6-yl)benzyl)benzamide]	67
O=C(c1ccccc1)N(Cc1cccc(-c2cc(F)c3ncnc(NC4CC4)c3c2)c1)C1CC1 [Example 693, N-cyclopropyl-N-(3-(4-(cyclopropylamino)-8-fluoroquinazolin-6-yl)benzyl)benzamide]	102
Cc1cc2ncnc(NC3CC3)c2cc1-c1cccc(CN(C2CC2)S(C)(=O)=O)c1 [Example 697, N-cyclopropyl-N-(3-(4-(cyclopropylamino)-7-methylquinazolin-6-yl)benzyl)methane sulfonamide]	90
Cc1cc2ncnc(NC3CC3)c2cc1-c1cccc(CN(C(=O)c2cccs2)C2CC2)c1 [Example 698, N-cyclopropyl-N-(3-(4-(cyclopropylamino)-7-methylquinazolin-6-yl)benzyl)thiophene-2-carboxamide]	89
Cc1cc2ncnc(NC3CC3)c2cc1-c1cccc(CN(C(=O)c2ccccn2)C2CC2)c1 [Example 699, N-cyclopropyl-N-(3-(4-(cyclopropylamino)-7-methylquinazolin-6-yl)benzyl)picolinamide]	90
COc1ccc(C(=O)N(Cc2cccc(-c3cc(F)c4ncnc(NC5CC5)c4c3)c2)C2CC2)cc1OC [Example 700, N-cyclopropyl-N-(3-(4-(cyclopropylamino)-8-fluoroquinazolin-6-yl)benzyl)-3,4-dimethoxybenzamide]	81
O=S(=O)(c1cccs1)N(Cc1cccc(-c2cc(F)c3ncnc(NC4CC4)c3c2)c1)C1CC1 [Example 701, N-cyclopropyl-N-(3-(4-(cyclopropylamino)-8-fluoroquinazolin-6-yl)benzyl)thiophene-2-sulfonamide]	93
Cc1cc2ncnc(NC3CC3)c2cc1-c1cccc(CN(C(=O)c2cccnc2)C2CC2)c1 [Example 702, N-cyclopropyl-N-(3-(4-(cyclopropylamino)-7-methylquinazolin-6-yl)benzyl)nicotinamide]	86
O=C(CCc1ccccc1)N(Cc1cccc(-c2cc(F)c3ncnc(NC4CC4)c3c2)c1)C1CC1 [Example 703, N-cyclopropyl-N-(3-(4-(cyclopropylamino)-8-fluoroquinazolin-6-yl)benzyl)-3-phenylpropanamide]	87
Cc1cc2ncnc(NC3CC3)c2cc1-c1cccc(CN(C2CC2)S(=O)(=O)C(C)C)c1 [Example 705, N-cyclopropyl-N-(3-(4-(cyclopropylamino)-7-methylquinazolin-6-yl)benzyl)propane-2-sulfonamide]	86
Cc1cc(C(=O)N(Cc2cccc(-c3cc4c(NC5CC5)ncnc4cc3C)c2)C2CC2)n(C)n1 [Example 706, N-cyclopropyl-N-(3-(4-(cyclopropylamino)-7-methylquinazolin-6-yl)benzyl)-1,3-dimethyl-1H-pyrazole-5-carboxamide]	69
Cc1cc2ncnc(NC3CC3)c2cc1-c1cccc(CN(C(=O)c2ccncc2)C2CC2)c1 [Example 707, N-cyclopropyl-N-(3-(4-(cyclopropylamino)-7-methylquinazolin-6-yl)benzyl)isonicotinamide]	89
O=S(=O)(c1cccc2cccnc12)N(Cc1cccc(-c2cc(F)c3ncnc(NC4CC4)c3c2)c1)C1CC1 [Example 709, N-cyclopropyl-N-(3-(4-(cyclopropylamino)-8-fluoroquinazolin-6-yl)benzyl)quinoline-8-sulfonamide]	36
Cc1cc2ncnc(NC3CC3)c2cc1-c1cccc(CN(C2CC2)S(=O)(=O)Cc2ccccc2)c1 [Example 713, N-cyclopropyl-N-(3-(4-(cyclopropylamino)-7-methylquinazolin-6-yl)benzyl)-1-phenylmethane sulfonamide]	51
Cc1cc2ncnc(NC3CC3)c2cc1-c1cccc(CN(C(=O)c2ccccc2)C2CC2)c1 [Example 714, N-cyclopropyl-N-(3-(4-(cyclopropylamino)-7-methylquinazolin-6-yl)benzyl)benzamide]	95
CCCCC(=O)N(Cc1cccc(-c2cc3c(NC4CC4)ncnc3cc2C)c1)C1CC1 [Example 715, N-cyclopropyl-N-(3-(4-(cyclopropylamino)-7-methylquinazolin-6-yl)benzyl)pentanamide]	90
CNc1ncnc2ccc(-c3ccc(F)c(CN(C)C(=O)CN(C)C)c3)cc12 [Example 718, 2-(dimethylamino)-N-(2-fluoro-5-(4-(methylamino)quinazolin-6-yl)benzyl)-N-methylacetamide]	40
Cc1cc2ncnc(NC3CC3)c2cc1-c1cccc(CN(C(=O)C(C)(C)C)C2CC2)c1 [Example 719, N-cyclopropyl-N-(3-(4-(cyclopropylamino)-7-methylquinazolin-6-yl)benzyl)pivalamide]	84

Source: patent US20090069320A1, “Substituted 4-Amino-Quinazoline Compounds with Metabotropic Glutamate Receptor Regulating Activity and Uses Thereof” (Gruenenthal GmbH, priority 2006, published 2009)
